Results reported in US20240025893A1, “PYRIMIDINE-AND NITROGEN-CONTAINING BICYCLIC COMPOUND” (Asahi Kasei Pharma Corporation, priority 2020, published 2024).

Tests used:
[1] = target: human IRAK-4 (Homo sapiens (Human), UniProt Q9NWZ3); experiment: Measurement of human IRAK-4 inhibitory activity (TR-FRET, peptide substrate phosphorylation, 10 μM ATP); assay type: biochemical; details: 1 nM IRAK-4, 10 μM ATP, 23° C., 30 minutes; average values
Procedure: For the measurement of the activity of the human IRAK-4 (Invitrogen, Cat. PV3362), phosphorylation of the IRAK-4 peptide substrate (biotin-KKKKRFSFKKSFKC) by the enzyme in the presence of 10 μM ATP (Sigma-Aldrich, Cat. A7699) was measured by the TR-FRET method. The enzymatic reaction was performed in a reaction buffer containing 50 mM HEPES (pH 7.2), 1 mM DTT, 0.1 mM Na3VO4, 5 mM MgCl2, 1 mM MnCl2, and 0.1% bovine serum albumin. For the measurement of the IRAK-4 inhibitory activity, a test compound was added to the reaction buffer containing 1 nM IRAK-4, 0.5 μM peptide substrate, and 10 μM ATP, and the mixture was incubated at 23° C. for 30 minutes. Then, a detection solution containing an antibody labeled with europium cryptate (0.3 μg/mL, the antibody was prepared by using the IRAK-4 peptide substrate as the antigen), streptavidin-XL665 (2 μg/mL, CisBio, Cat. 610SAXLB), 50 mM HEPES (pH 7.2), 0.1% BSA, 120 mM KF, and 66.7 mM EDTA (all the concentrations of the reagents are final concentrations) was added to terminate the reaction, and then the mixture was further incubated at 23° C. for 60 minutes. Fluorescence intensity was measured at wavelengths of 665 nm and 620 nm with a microplate reader, and the enzymatic activity was calculated as the ratio of fluorescence intensities at 665 nm and 620 nm (665 nm/620 nm).

[2] = system: LPS-stimulated TNFα production in THP-1 cells; experiment: LPS-stimulated TNFα production inhibition test using human acute monocytic leukemia cell strain THP-1; assay type: cell-based; details: Homo sapiens, LPS 2.5 ng/mL, average values
Procedure: By the THP-1 assay, influence of a test compound on the TNFα production induced by LPS stimulation can be evaluated. The THP-1 cells (ATCC, Cat. TIB-202) were inoculated on a 96-well plate at a density of 1×10^5 cells/160 μL/well, a test compound was added in a volume of 20 μL, and the plate was incubated at 37° C. for 1 hour in a 5% CO2 incubator. Then, LPS in a volume of 20 μL (final concentration 2.5 ng/mL, Sigma, Cat. L2630) was added, and the plate was further incubated for 4 hours. After the incubation, the plate was centrifuged, and 100 μL of the supernatant was taken from each well, and used for evaluation of the amount of TNFα using HTRF (Cisbio, Cat. 62TNFPEB). In the measurement of the amount of TNFα, the supernatant was diluted twice with the medium, and then added to wells of a 384-well plate in a volume of 10 μL, then anti-TNFα-cryptate (5 μL), and anti-TNFα-XL665 (5 μL) were added, and the plate was left standing overnight. The fluorescence intensity ratio for the wavelengths of 620 and 665 nm (620 nm/665 nm) was measured with a microplate reader, and the amount of TNFα in the supernatant was calculated by using a calibration curve. The TNFα production suppression ratio observed with no addition of LPS was defined to be 100%, the TNFα production suppression ratio observed with no addition of the test compound was defined to be 0%, and IC50 of the test compound was calculated by using the 4-parameter logistic model of the data analysis software XLfit (ID Business Solutions Ltd.).

human IRAK-4, sequence (Q9NWZ3 whole entry): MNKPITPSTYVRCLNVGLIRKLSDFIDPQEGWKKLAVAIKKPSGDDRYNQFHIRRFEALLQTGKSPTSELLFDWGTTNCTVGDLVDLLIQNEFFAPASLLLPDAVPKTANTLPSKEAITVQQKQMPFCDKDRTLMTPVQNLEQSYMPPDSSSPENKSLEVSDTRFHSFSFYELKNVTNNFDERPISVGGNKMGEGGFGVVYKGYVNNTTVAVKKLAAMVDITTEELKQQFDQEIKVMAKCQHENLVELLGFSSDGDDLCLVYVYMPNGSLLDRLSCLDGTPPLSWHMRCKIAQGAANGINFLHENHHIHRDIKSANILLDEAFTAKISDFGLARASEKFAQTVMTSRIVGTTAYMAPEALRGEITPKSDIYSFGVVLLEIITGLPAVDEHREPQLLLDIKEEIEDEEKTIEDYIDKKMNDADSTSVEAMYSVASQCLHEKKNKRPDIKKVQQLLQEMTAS

Row | Compound | IC50 [1] [µM] | IC50 ([2]; THP-1, 4 h) [µM] | IC50 ([2]; 4 hours) [µM]
1 | CC1CC(F)(F)CN1C1CC(C(=O)Nc2nc3ccc(-c4cnc(CO[C@H]5CCC[C@@H]5O)nc4)cc3s2)C1 (stereo partly drawn) [b-02-46] | 0.00355 | 0.171 | 
2 | O=C(Nc1nc2ccc(-c3cnc(CO[C@H]4CCC[C@@H]4O)nc3)cc2s1)C1CC(NC2CC2)C1 (stereo partly drawn) [b-02-47] | 0.00175 | 0.11 | 
3 | O=C(Nc1nc2ccc(-c3cnc(CO[C@H]4CCC[C@@H]4O)nc3)cc2s1)C1CC(NC2CCC2)C1 (stereo partly drawn) [b-02-48] | 0.00203 | 0.143 | 
4 | CC12CC(NC3CC(C(=O)Nc4nc5ccc(-c6cnc(CO[C@H]7CCC[C@@H]7O)nc6)cc5s4)C3)(C1)C2 (stereo partly drawn) [b-02-49] | 0.00252 | 0.119 | 
5 | O=C(Nc1nc2ccc(-c3cnc(CO[C@H]4CCC[C@@H]4O)nc3)cc2s1)C1CC(NC2CCCC2)C1 (stereo partly drawn) [b-02-50] | 0.00193 | 0.144 | 
6 | O=C(Nc1nc2ccc(-c3cnc(CO[C@H]4CCC[C@@H]4O)nc3)cc2s1)C1CC(N2CC[C@H](OC(F)F)C2)C1 (stereo partly drawn) [b-02-51] | 0.00217 | 0.146 | 
7 | O=C(Nc1nc2ccc(-c3cnc(CO[C@H]4CCC[C@@H]4O)nc3)cc2s1)C1CC(NCC(F)F)C1 (stereo partly drawn) [b-02-52] | 0.0026 |  | 0.176
8 | CN(CC(F)F)C1CC(C(=O)Nc2nc3ccc(-c4cnc(CO[C@H]5CCC[C@@H]5O)nc4)cc3s2)C1 (stereo partly drawn) [b-02-53] | 0.00259 | 0.172 | 
9 | O=C(Nc1nc2ccc(-c3cnc(CO[C@H]4CCC[C@@H]4O)nc3)cc2s1)C1CC(N2CCOC[C@@H]2C(F)(F)F)C1 (stereo partly drawn) [b-02-54] | 0.00346 | 0.135 | 
10 | O=C(Nc1nc2ccc(-c3cnc(CO[C@H]4CCC[C@@H]4O)nc3)cc2s1)C1CC(N2CCOC[C@H]2C(F)(F)F)C1 (stereo partly drawn) [b-02-55] | 0.00297 | 0.15 | 
11 | O=C(Nc1nc2ccc(-c3cnc(CO[C@H]4CCC[C@@H]4O)nc3)cc2s1)C1CC(NC2(C(F)F)CC2)C1 (stereo partly drawn) [b-02-56] | 0.00176 | 0.109 | 
12 | O=C(Nc1nc2ccc(-c3cnc(CO[C@H]4CCC[C@@H]4O)nc3)cc2s1)C1CC(NC2(C(F)(F)F)CC2)C1 (stereo partly drawn) [b-02-57] | 0.00262 | 0.119 | 
13 | O=C(Nc1nc2ccc(-c3cnc(CO[C@H]4CCC[C@@H]4O)nc3)cc2s1)C1CC(N[C@@H]2C[C@H]2C(F)(F)F)C1 (stereo partly drawn) [b-02-58] | 0.0027 | 0.133 | 
14 | N#CC1(NC2CC(C(=O)Nc3nc4ccc(-c5cnc(CO[C@H]6CCC[C@@H]6O)nc5)cc4s3)C2)CC1 (stereo partly drawn) [b-02-59] | 0.00151 | 0.105 | 
15 | O=C(Nc1nc2ccc(-c3cnc(CO[C@H]4CCC[C@@H]4O)nc3)cc2s1)C1CC(NC23CC(C(F)(F)F)(C2)C3)C1 (stereo partly drawn) [b-02-60] | 0.00427 | 0.158 | 
16 | O=C(Nc1nc2ccc(-c3cnc(CO[C@H]4CCC[C@@H]4O)nc3)cc2s1)C1CC(N2CCOC(C(F)(F)F)C2)C1 (stereo partly drawn) [b-02-61] | 0.00387 | 0.109 | 
17 | O=C(Nc1nc2ccc(-c3cnc(CO[C@H]4CCC[C@@H]4O)nc3)cc2s1)C1CC(N2CC[C@@H](OC(F)F)C2)C1 (stereo partly drawn) [b-02-62] | 0.00138 | 0.141 | 
18 | O=C(Nc1nc2ccc(-c3cnc(CO[C@H]4CCC[C@@H]4O)nc3)cc2s1)C1CC(N2CCOC3(CCC3)C2)C1 (stereo partly drawn) [b-02-63] | 0.00239 | 0.159 | 

Row | Compound | IC50 [1] [µM] | IC50 ([2]; THP-1, 4 h) [µM] | IC50 ([2]; 4 hours) [µM]
19 | Cn1cc(NC2CC(C(=O)Nc3nc4ccc(-c5cnc(CO[C@H]6CCC[C@@H]6O)nc5)cc4s3)C2)cn1 (stereo partly drawn) [b-02-65] | 0.00238 | 0.163 | 
20 | O=C(Nc1nc2ccc(-c3cnc(CO[C@H]4CCC[C@@H]4O)nc3)cc2s1)C1CC(N2CCc3ccccc32)C1 (stereo partly drawn) [b-02-66] | 0.005 | 0.227 | 
21 | CC(C)C[C@H]1COCCN1C1CC(C(=O)Nc2nc3ccc(-c4cnc(CO[C@H]5CCC[C@@H]5O)nc4)cc3s2)C1 (stereo partly drawn) [b-02-67] | 0.00236 | 0.091 | 
22 | O=C(Nc1nc2ccc(-c3cnc(CO[C@H]4CCC[C@@H]4O)nc3)cc2s1)C1CC(N2CCOCC2C2CC2)C1 (stereo partly drawn) [b-02-68] | 0.00218 | 0.16 | 
23 | O=C(Nc1nc2ccc(-c3cnc(CO[C@H]4CCC[C@@H]4O)nc3)cc2s1)C1CC(N2CCO[C@@H]3CCC[C@@H]32)C1 (stereo partly drawn) [b-02-69] | 0.00181 | 0.08 | 
24 | CC1(C)CN(C2CC(C(=O)Nc3nc4ccc(-c5cnc(CO[C@H]6CCC[C@@H]6O)nc5)cc4s3)C2)[C@@H]2CCC[C@H]2O1 (stereo partly drawn) [b-02-70] | 0.00294 | 0.09 | 
25 | O=C(Nc1nc2ccc(-c3cnc(CO[C@H]4CCC[C@@H]4O)nc3)cc2s1)C1CC(N2CCOCC2CC2CC2)C1 (stereo partly drawn) [b-02-71] | 0.00236 | 0.105 | 
26 | CN(CCO)C1CC(C(=O)Nc2nc3ccc(-c4cnc(CO[C@H]5CCC[C@@H]5O)nc4)cc3s2)C1 (stereo partly drawn) [b-02-72] | 0.00147 | 0.162 | 
27 | O=C(Nc1nc2ccc(-c3cnc(CO[C@H]4CCC[C@@H]4O)nc3)cc2s1)C1CC(N2CCC3(CC2)COC3)C1 (stereo partly drawn) [b-02-74] | 0.00157 | 0.189 | 
28 | O=C(Nc1nc2ccc(-c3cnc(CO[C@H]4CCC[C@@H]4O)nc3)cc2s1)C1CC(NC2C3CC2C3)C1 (stereo partly drawn) [b-02-76] | 0.00155 | 0.099 | 
29 | O=C(Nc1nc2ccc(-c3cnc(CO[C@H]4CCC[C@@H]4O)nc3)cc2s1)C1CC(N2CCCCO2)C1 (stereo partly drawn) [b-02-77] | 0.0026 | 0.187 | 
30 | O=C(Nc1nc2ccc(-c3cnc(CO[C@H]4CCC[C@@H]4O)nc3)cc2s1)C1CC(NC2(C(F)(F)F)COC2)C1 (stereo partly drawn) [b-02-78] | 0.00229 | 0.111 | 
31 | O=C(Nc1nc2ccc(-c3cnc(CO[C@H]4CCC[C@@H]4O)nc3)cc2s1)C1CC(NC2(C(F)(F)F)CCC2)C1 (stereo partly drawn) [b-02-79] | 0.00339 | 0.138 | 
32 | O=C(Nc1nc2ccc(-c3cnc(CO[C@H]4CCC[C@@H]4O)nc3)cc2s1)C1CC(NC2(C(F)(F)F)CCCC2)C1 (stereo partly drawn) [b-02-80] | 0.00686 | 0.176 | 
33 | O=C(Nc1nc2ccc(-c3cnc(CO[C@H]4CCC[C@@H]4O)nc3)cc2s1)C1CC(N2CCOC3(CCCC3)C2)C1 (stereo partly drawn) [b-02-81] | 0.00364 | 0.202 | 
34 | CC1COC2(CCCC2)CN1C1CC(C(=O)Nc2nc3ccc(-c4cnc(CO[C@H]5CCC[C@@H]5O)nc4)cc3s2)C1 (stereo partly drawn) [b-02-82] | 0.00402 | 0.131 | 
35 | O=C(Nc1nc2ccc(-c3cnc(CO[C@H]4CCC[C@@H]4O)nc3)cc2s1)C1CC(N2CCCCC2)C1 (stereo partly drawn) [b-02-83] | 0.00193 | 0.149 | 
36 | C[C@@H]1CCCCN1C1CC(C(=O)Nc2nc3ccc(-c4cnc(CO[C@H]5CCC[C@@H]5O)nc4)cc3s2)C1 (stereo partly drawn) [b-02-84] | 0.00104 | 0.101 | 
